The melting point is the temperature of the solid-liquid transition. As a reminder, the IC50 is the point on the concentration scale where inhibition reaches its midpoint. Low values mean greater potency, high ones weaker potency.

Series [1] has as its target T1, Flt-3 (Homo sapiens, UniProt P36888).
T1 construct: amino acids 563-993 of the cytoplasmic kinase domain of human Flt-3; made in house; host or cells: Sf9 insect cells (baculovirus, vector pFbacG01)
T1 sequence (P36888 563-993): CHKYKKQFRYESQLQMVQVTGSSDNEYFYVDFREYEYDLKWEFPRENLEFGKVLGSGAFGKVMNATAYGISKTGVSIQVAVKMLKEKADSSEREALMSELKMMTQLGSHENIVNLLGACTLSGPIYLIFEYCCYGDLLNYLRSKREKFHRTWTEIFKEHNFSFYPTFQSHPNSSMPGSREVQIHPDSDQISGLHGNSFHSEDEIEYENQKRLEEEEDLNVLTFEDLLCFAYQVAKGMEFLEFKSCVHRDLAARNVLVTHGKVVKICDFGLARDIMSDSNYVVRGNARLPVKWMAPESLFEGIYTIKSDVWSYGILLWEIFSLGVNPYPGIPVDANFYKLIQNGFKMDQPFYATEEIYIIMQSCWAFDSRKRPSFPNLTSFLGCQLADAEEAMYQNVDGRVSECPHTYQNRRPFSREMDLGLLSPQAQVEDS
In words: Flt-3 kinase inhibition (GST-Flt-3, 33P incorporation into poly(Glu,Tyr)). The class given is biochemical. How it is done: Flt-3 kinase inhibition is determined as follows: The baculovirus donor vector pFbacG01 (GIBCO) is used to generate a recombinant baculovirus expressing the amino acid region amino acids 563-993 of the cytoplasmic kinase domain of human Flt-3. The coding sequence for the cytoplasmic domain of Flt-3 is amplified by PCR from human c-DNA libraries (Clontech). The amplified DNA fragments and the pFbacG01 vector are made compatible for ligation by digestion with BamHI and HindIII. Ligation of these DNA fragments results in the baculovirus donor plasmid pFbacG01-Flt-3. The production of the viruses, the expression of proteins in Sf9 cells and the purification of the GST-fused proteins are performed as follows:
Production of virus: The baculovirus donor plasmid (pFbacG01-Flt-3) containing the Flt-3 kinase domain is transfected into the DH10Bac cell line (GIBCO) and the transfected cells are plated on selective agar plates. Colonies without insertion of the fusion sequence into the viral genome (carried by the bacteria) are blue. Single white colonies are picked and viral DNA (bacmid) is isolated from the bacteria by standard plasmid purification procedures. Sf9 or Sf21 cells (American Type Culture Collection) are then transfected in flasks with the viral DNA using Cellfectin reagent.
Protein expression in Sf9 cells: Virus containing media is collected from the transfected cell culture and used for infection to increase its titre. Virus containing media obtained after two rounds of infection is used for large-scale protein expression. For large-scale protein expression 100 cm^2 round tissue culture plates are seeded with 5×10^7 cells/plate and infected with 1 mL of virus-containing media (approx. 5 MOIs). After 3 days the cells are scraped off the plate and centrifuged at 500 rpm for 5 min. Cell pellets from 10-20, 100 cm^2 plates are resuspended in 50 mL of ice-cold lysis buffer (25 mM Tris-HCl, pH 7.5, 2 mM EDTA-1% NP-40. 1 mM DTT, 1 mM PMSF). The cells are stirred on ice for 15 min and then centrifuged at 5000 rpms for 20 min.
Purification of GST-tagged protein: The centrifuged cell lysate is loaded onto a 2 mL glutathione-sepharose column (Pharmacia) and washed three times with 10 mL of 25 mM Tris-HCl, pH 7.5, 2 mM EDTA, 1 mM DTT, 200 mM NaCl. The GST-tagged protein is then eluted by 10 applications (1 mL each) of 25 mM Tris-HCl, pH 7.5, 10 mM reduced-glutathione, 100 mM NaCl, 1 mM DTT, 10% Glycerol and stored at −70° C.
Measurement of enzyme activity: Tyrosine protein kinase assays with purified GST-Flt-3 protein are carried out in a final volume of 30 μL containing 200-1800 ng of enzyme protein (depending on the specific activity), 20 mM Tris-HCl, pH 7.6, 3 mM MnCl2, 3 mM MgCl2, 1 mM DTT, 10 μM Na3VO4, 3 μg/mL poly(Glu, Tyr) 4:1, 1% DMSO, 8.0 μM ATP and 0.1 μCi [γ^33 P] ATP. The activity is assayed in the presence or absence of inhibitors, by measuring the incorporation of ^33P from [γ^33P] ATP into the poly(Glu,Tyr) substrate. The assay (30 μL) is carried out in 96-well plates at ambient temperature for 20 min and terminated by the addition of 20 μL of 125 mM EDTA. Subsequently, 40 μL of the reaction mixture is transferred onto Immobilon-PVDF membrane (Millipore, Bedford, Mass., USA) previously soaked for 5 min with methanol, rinsed with water, then soaked for 5 min with 0.5% H3PO4 and mounted on vacuum manifold with disconnected vacuum source. After spotting all samples, vacuum is connected and each well rinsed with 200 μL 0.5% H3PO4. Membranes are removed and washed 4× on a shaker with 1.0% H3PO4, once with ethanol. Membranes are counted after drying at ambient temperature, mounting in Packard TopCount 96-well frame, and addition of 10 μL/well of Microscint™ (Packard). IC50 values are calculated by linear regression analysis of the percentage inhibition of each compound in duplicate, at four concentrations (usually 0.01, 0.1, 1 and 10 μM). One unit of protein kinase activity is defined as 1 nmole of ^33P transferred from [γ3P] […]

`CC(C)N1CCN(Cc2cc(NC(=O)Nc3ccc(Oc4cc(Cl)ncn4)cc3)cc(C(F)(F)F)c2)CC1` [Example 5, N-[4-(6-Chloro-pyrimidin-4-yloxy)-phenyl]-N′-[3-(4-isopropylpiperazin-1-ylmethyl)-5-trifluoromethyl-phenyl]-urea] had a melting point of 101 °C. The half-inhibitory concentration (IC50) in series [1] came out at 540 nM.

For `CN1CCN(Cc2cc(NC(=O)Nc3ccc(Oc4cc(Cl)ncn4)cc3)cc(C(F)(F)F)c2)CC1` [Example 9, N-[4-(6-Chloro-Pyrimidin-4-yloxy)-phenyl]-N′-[3-(4-methylpiperazin-1-ylmethyl)-5-trifluoromethyl-phenyl]-urea], the melting point lay within 291 to 292 °C. In addition, inhibition in series [1] was half-maximal at 320 nM (IC50).

As for `CCN(CC)Cc1cc(NC(=O)Nc2ccc(Oc3cc(NC)ncn3)cc2)cc(C(F)(F)F)c1` [Example 11, N-[4-(6-Methylamino-pyrimidin-4-yloxy)-phenyl]-N′-(3-diethylaminomethyl-5-trifluoromethyl-phenyl)-urea], the melting point is 68 to 70 °C. The compound further yielded an IC50 in series [1] of 230 nM.

As for `CCN(CC)Cc1cc(NC(=O)Nc2ccc(Oc3cc(N)ncn3)cc2)cc(C(F)(F)F)c1` [Example 13, N-[4-(6-Amino-pyrimidin-4-yloxy)-phenyl]-N′-(3-diethylaminomethyl-5-trifluoromethyl-phenyl)-urea], the melting point is 63 to 65 °C. Also, in series [1], the midpoint of inhibition, the IC50, lay at 340 nM.

The compound `Nc1cc(Oc2ccc(NC(=O)Nc3ccc(CN4CCNCC4)c(C(F)(F)F)c3)cc2)ncn1` [Example 19-1, N-[4-(6-Amino-pyrimidin-4-yloxy)-phenyl]-N′-[4-(4-H-piperazin-1-ylmethyl)-5-trifluoromethyl-phenyl]-urea] displayed a melting point of 153 to 155 °C. Besides, the half-maximal inhibitory concentration (IC50) in series [1] is 38 nM.

`CNc1cc(Oc2ccc(NC(=O)Nc3ccc(CN4CCNCC4)c(C(F)(F)F)c3)cc2)ncn1` [Example 19-2, N-[4-(6-Methylamino-pyrimidin-4-yloxy)-phenyl]-N′-[4-(4-H-piperazin-1-ylmethyl)-5-trifluoromethyl-phenyl]-urea]: the melting point fell in the range of 197 to 198 °C. Moreover, it took 80 nM to reach half-maximal inhibition in series [1] (IC50).

As for `CN(C)Cc1ccc(NC(=O)Nc2ccc(Oc3cc(Cl)ncn3)cc2)cc1C(F)(F)F` [Example 20-2, N-[4-(6-Chloro-pyrimidin-4-yloxy)-phenyl]-N′-[4-(N,N-dimethylamino-methyl)-3-trifluoromethyl-phenyl]-urea], the melting point is 98 to 105 °C.

Turning to `Cc1ncn(Cc2ccc(NC(=O)Nc3ccc(Oc4cc(Cl)ncn4)cc3)cc2C(F)(F)F)c1C` [Example 23, N-[4-(6-Chloro-pyrimidin-4-yloxy)-phenyl]-N′-[4-(4,5-dimethylimidazol-1-ylmethyl)-3-trifluoromethyl-phenyl]-urea], the melting point fell in the range of 195 to 196 °C. Besides, the IC50 in series [1] came to 1300 nM.

In turn, `Cc1nccn1Cc1ccc(NC(=O)Nc2ccc(Oc3cc(Cl)ncn3)cc2)cc1C(F)(F)F` [Example 24, N-[4-(6-Chloro-pyrimidin-4-yloxy)-phenyl]-N′-[4-(2-methylimidazol-1-ylmethyl)-3-trifluoromethyl-phenyl]-urea] registered a melting point of 228 °C. Further, inhibition in series [1] was half-maximal at 170 nM (IC50).

With `CCN1CCN(Cc2ccc(NC(=O)Nc3ccc(Oc4cc(Cl)ncn4)cc3)cc2)CC1` [Example 27, N-[4-(6-Chloro-pyrimidin-4-yloxy)-phenyl]-N′-[4-(4-ethylpiperazin-1-ylmethyl)-phenyl]-urea], the melting point was 203 to 204 °C.

On to `CNC(=O)c1cc(NC(=O)Nc2ccc(Oc3cc(NC)ncn3)cc2)cc(C(F)(F)F)c1` [Example 41, 3-{3-[4-(6-Methylamino-pyrimidin-4-yloxy)-phenyl]-ureido}-N-methyl-5-trifluoromethyl-benzamide], for which, in series [1], half-maximal inhibition (IC50) was put at 420 nM.

Regarding `CNC(=O)c1cc(NC(=O)Nc2ccc(Oc3cc(N)ncn3)cc2)cc(C(F)(F)F)c1` [Example 43, 3-{3-[4-(6-Amino-pyrimidin-4-yloxy)-phenyl]-ureido}-N-methyl-5-trifluoromethyl-benzamide], half-maximal inhibition in series [1] (IC50) was put at 160 nM.

The compound `CNc1nccc(Oc2ccc(NC(=O)Nc3ccc(CN(C)C)c(C(F)(F)F)c3)cc2)n1` [Example 48, N-[4-(2-Methylamino-pyrimidin-4-yloxy)-phenyl]-N′-[4-(4-dimethylamino-methyl) 3-trifluoromethyl-phenyl]-urea] registered a concentration for half-maximal inhibition (IC50) in series [1] of 580 nM.

In series [1], `Cc1nccn1Cc1ccc(NC(=O)Nc2ccc(Oc3ccnc(N)n3)cc2)cc1C(F)(F)F` [Example 51b.1] showed an IC50 of 130 nM.

`CNc1nccc(Oc2ccc(NC(=O)Nc3ccc(Cn4ccnc4C)c(C(F)(F)F)c3)cc2)n1` [Example 51b.2] had an IC50 in series [1] of 170 nM.

As for `CCN1CCN(Cc2ccc(NC(=O)Nc3ccc(Oc4ccnc(N)n4)cc3)cc2C)CC1` [Example 51d.1], inhibition in series [1] was half-maximal at 91 nM (IC50).

`CCN1CCN(Cc2ccc(NC(=O)Nc3ccc(Oc4ccnc(NC)n4)cc3)cc2C)CC1` [Example 51d.2] registered an IC50 in series [1] of 135 nM.

For `CCN1CCN(Cc2ccc(NC(=O)Nc3ccc(Oc4ccnc(N)n4)cc3)cc2)CC1` [Example 51e.1], the IC50 in series [1] came to 250 nM. Compared with the last compound, the IC50 is about 1.9-fold higher.

For the compound `CCN1CCN(Cc2ccc(NC(=O)Nc3ccc(Oc4ccnc(NC)n4)cc3)cc2)CC1` [Example 51e.2], inhibition in series [1] was half-maximal at 910 nM (IC50).

As for `Nc1nccc(Oc2ccc(NC(=O)Nc3cccc(C(F)(F)F)c3)cc2)n1` [Example 52b], the midpoint of inhibition in series [1], the IC50, lay at 80 nM.

In series [1], `Nc1nccc(Oc2ccc(NC(=O)Nc3cc(-c4ccccn4)cc(C(F)(F)F)c3)cc2)n1` [Example 52d] came in with an IC50 of 260 nM.

`COc1cccc(Nc2cc(Oc3ccc(NC(=O)Nc4ccc(N5CCOCC5)c(C(F)(F)F)c4)cc3)ncn2)c1` [Example 55c] registered a 50% inhibitory concentration (IC50) in series [1] of 370 nM.

In series [1], `O=C(Nc1ccc(Oc2cc(NC3CCC(O)CC3)ncn2)cc1)Nc1ccc(N2CCOCC2)c(C(F)(F)F)c1` (centres unmarked) [Example 55d] displayed an IC50 of 970 nM.

In series [1], `Nc1cc(Oc2ccc(NC(=O)Nc3ccc(-c4ccccn4)c(C(F)(F)F)c3)cc2)ncn1` [Example 57, 1-[4-(6-Amino-pyrimidin-4-yloxy)-phenyl]-3-(4-pyridin-2-yl-3-trifluoromethyl-phenyl)-urea] had an IC50 of 118 nM.

For the compound `Nc1cc(Oc2ccc(NC(=O)Nc3ccc(-c4cccnc4)c(C(F)(F)F)c3)cc2)ncn1` [Example 58, 1-[4-(6-Amino-pyrimidin-4-yloxy)-phenyl]-3-(4-pyridin-3-yl-3-trifluoromethyl-phenyl)-urea], the melting point was in the range of 132 to 135 °C. Half-maximal inhibition in series [1] (IC50) was put at 120 nM.

For `CCN1CCN(Cc2ccc(NC(=O)Nc3ccc(Oc4cc(NC(=O)OC)ncn4)cc3)cc2C(F)(F)F)CC1` [Example 70], the melting point lay in the range of 191 to 193 °C.

The values above are taken from patent US20080312192A1, “Diaryl Urea Derivatives in the Treatment of Protein Kinase Dependent Diseases” (priority 2003, published 2008).
